According to article PMC13064811, “The Role of Disulfide Bonds in the GluN1 Subunit in the Early Trafficking and Functional Properties of GluN1/GluN2 and GluN1/GluN3 NMDA Receptors” (The Journal of Neuroscience, 2026):

Legend:
hGluN1-4a/hGluN2A = molecular target: T1, hGluN1-4a/hGluN2A (Homo sapiens, UniProt Q05586+Q12879); format: cell-based; settings: pretreatment with 4 mM DTT or 0.5 mM DTNB, each for 2 min
T1 construct: GluN1-4a (hGluN1-4a; NP_000823.4); GluN2A (hGluN2A; NP_001127879.1); expressed in transfected cells; host or cells: HEK293T

hGluN1-4a-C744Y/hGluN2B = molecular target: T2, hGluN1-4a-C744Y/hGluN2B (Homo sapiens, UniProt Q05586+Q13224, C744Y); format: cell-based; settings: pretreatment with 4 mM DTT, 2 min
T2 construct: GluN1-4a (hGluN1-4a; NP_000823.4); GluN2B (hGluN2B; NP_000825.2); expressed in transfected cells; host or cells: HEK293T

hGluN1-4a/hGluN2B = molecular target: T3, hGluN1-4a/hGluN2B (Homo sapiens, UniProt Q05586+Q13224); format: cell-based; settings: pretreatment with 4 mM DTT or 0.5 mM DTNB, each for 2 min
T3 construct: GluN1-4a (hGluN1-4a; NP_000823.4); GluN2B (hGluN2B; NP_000825.2); expressed in transfected cells; host or cells: HEK293T

hGluN1-4a-C744Y/hGluN2A = molecular target: T4, hGluN1-4a-C744Y/hGluN2A (Homo sapiens, UniProt Q05586+Q12879, C744Y); format: cell-based; settings: pretreatment with 4 mM DTT or 0.5 mM DTNB, each for 2 min
T4 construct: GluN1-4a (hGluN1-4a; NP_000823.4); GluN2A (hGluN2A; NP_001127879.1); expressed in transfected cells; host or cells: HEK293T

[1] = molecular target: GluN1-C744Y/GluN2A receptors; settings: read-out: EC50 value for L-glutamate; cited from earlier work
GluN1-C455S/GluN2B = settings: read-out: EC50 L-glutamate; cited from earlier work
[2] = molecular target: YFP-hGluN1-1a-C744Y/hGluN2B (Homo sapiens, UniProt Q05586+Q13224, C744Y); format: cell-based
YFP-hGluN1-1a/hGluN2B = YFP-hGluN1-1a/hGluN2B (Homo sapiens, UniProt Q05586+Q13224); format: cell-based
YFP-hGluN1-1a/hGluN2A = YFP-hGluN1-1a/hGluN2A (Homo sapiens, UniProt Q05586+Q12879); format: cell-based
[3] = molecular target: YFP-hGluN1-1a-C744Y/hGluN2A (Homo sapiens, UniProt Q05586+Q12879, C744Y); format: cell-based
GluN1-C436S/GluN2B = settings: read-out: EC50 L-glutamate; cited from earlier work
GluN1-C454S/GluN2B = settings: read-out: EC50 L-glutamate; cited from earlier work
[4] = molecular target: YFP-GluN1-1a-C420S-C454S/GluN2B (Rattus norvegicus, UniProt P35439+Q00960, C420S/C454S)
[5] = molecular target: YFP-GluN1-4a-C436S-C455S/GluN2B (Rattus norvegicus, UniProt P35439+Q00960, C436S/C455S)
[6] = molecular target: GluN1-4a-C79S-C308S/GluN2A (Rattus norvegicus, UniProt P35439+Q00959, C308S/C79S)
[7] = molecular target: YFP-GluN1-1a-C744S-C798S/GluN2A (Rattus norvegicus, UniProt P35439+Q00959, C744S/C798S)
GluN1-4a/GluN2A = GluN1-4a/GluN2A (Rattus norvegicus, UniProt P35439+Q00959)
[8] = molecular target: YFP-GluN1-4a-C436S-C455S/GluN2A (Rattus norvegicus, UniProt P35439+Q00959, C436S/C455S)
[9] = molecular target: GluN1-4a-C744S-C798S/GluN2A (Rattus norvegicus, UniProt P35439+Q00959, C744S/C798S)
[10] = molecular target: GluN1-4a-C420S-C454S/GluN2A (Rattus norvegicus, UniProt P35439+Q00959, C420S/C454S)
[11] = molecular target: GluN1-4a-C436S-C455S/GluN2B (Rattus norvegicus, UniProt P35439+Q00960, C436S/C455S)
GluN1-4a/GluN2B = GluN1-4a/GluN2B (Rattus norvegicus, UniProt P35439+Q00960)
[12] = molecular target: GluN1-4a-C436S-C455S/GluN2A (Rattus norvegicus, UniProt P35439+Q00959, C436S/C455S)
[13] = molecular target: GluN1-4a-C79S-C308S/GluN2B (Rattus norvegicus, UniProt P35439+Q00960, C308S/C79S)
YFP-GluN1-1a/GluN2B = YFP-GluN1-1a/GluN2B (Rattus norvegicus, UniProt P35439+Q00960)
[14] = molecular target: YFP-GluN1-1a-C79S-C308S/GluN2A (Rattus norvegicus, UniProt P35439+Q00959, C308S/C79S)
[15] = molecular target: GluN1-4a-C744S-C798S/GluN2B (Rattus norvegicus, UniProt P35439+Q00960, C744S/C798S)
[16] = molecular target: YFP-GluN1-1a-C79S-C308S/GluN2B (Rattus norvegicus, UniProt P35439+Q00960, C308S/C79S)
[17] = molecular target: YFP-GluN1-1a-C744S-C798S/GluN2B (Rattus norvegicus, UniProt P35439+Q00960, C744S/C798S)
[18] = molecular target: YFP-GluN1-1a-C420S-C454S/GluN2A (Rattus norvegicus, UniProt P35439+Q00959, C420S/C454S)
YFP-GluN1-1a/GluN2A = YFP-GluN1-1a/GluN2A (Rattus norvegicus, UniProt P35439+Q00959)

Sequence of YFP-hGluN1-1a-C744Y/hGluN2B (Q13224 27-1484, other chains not shown): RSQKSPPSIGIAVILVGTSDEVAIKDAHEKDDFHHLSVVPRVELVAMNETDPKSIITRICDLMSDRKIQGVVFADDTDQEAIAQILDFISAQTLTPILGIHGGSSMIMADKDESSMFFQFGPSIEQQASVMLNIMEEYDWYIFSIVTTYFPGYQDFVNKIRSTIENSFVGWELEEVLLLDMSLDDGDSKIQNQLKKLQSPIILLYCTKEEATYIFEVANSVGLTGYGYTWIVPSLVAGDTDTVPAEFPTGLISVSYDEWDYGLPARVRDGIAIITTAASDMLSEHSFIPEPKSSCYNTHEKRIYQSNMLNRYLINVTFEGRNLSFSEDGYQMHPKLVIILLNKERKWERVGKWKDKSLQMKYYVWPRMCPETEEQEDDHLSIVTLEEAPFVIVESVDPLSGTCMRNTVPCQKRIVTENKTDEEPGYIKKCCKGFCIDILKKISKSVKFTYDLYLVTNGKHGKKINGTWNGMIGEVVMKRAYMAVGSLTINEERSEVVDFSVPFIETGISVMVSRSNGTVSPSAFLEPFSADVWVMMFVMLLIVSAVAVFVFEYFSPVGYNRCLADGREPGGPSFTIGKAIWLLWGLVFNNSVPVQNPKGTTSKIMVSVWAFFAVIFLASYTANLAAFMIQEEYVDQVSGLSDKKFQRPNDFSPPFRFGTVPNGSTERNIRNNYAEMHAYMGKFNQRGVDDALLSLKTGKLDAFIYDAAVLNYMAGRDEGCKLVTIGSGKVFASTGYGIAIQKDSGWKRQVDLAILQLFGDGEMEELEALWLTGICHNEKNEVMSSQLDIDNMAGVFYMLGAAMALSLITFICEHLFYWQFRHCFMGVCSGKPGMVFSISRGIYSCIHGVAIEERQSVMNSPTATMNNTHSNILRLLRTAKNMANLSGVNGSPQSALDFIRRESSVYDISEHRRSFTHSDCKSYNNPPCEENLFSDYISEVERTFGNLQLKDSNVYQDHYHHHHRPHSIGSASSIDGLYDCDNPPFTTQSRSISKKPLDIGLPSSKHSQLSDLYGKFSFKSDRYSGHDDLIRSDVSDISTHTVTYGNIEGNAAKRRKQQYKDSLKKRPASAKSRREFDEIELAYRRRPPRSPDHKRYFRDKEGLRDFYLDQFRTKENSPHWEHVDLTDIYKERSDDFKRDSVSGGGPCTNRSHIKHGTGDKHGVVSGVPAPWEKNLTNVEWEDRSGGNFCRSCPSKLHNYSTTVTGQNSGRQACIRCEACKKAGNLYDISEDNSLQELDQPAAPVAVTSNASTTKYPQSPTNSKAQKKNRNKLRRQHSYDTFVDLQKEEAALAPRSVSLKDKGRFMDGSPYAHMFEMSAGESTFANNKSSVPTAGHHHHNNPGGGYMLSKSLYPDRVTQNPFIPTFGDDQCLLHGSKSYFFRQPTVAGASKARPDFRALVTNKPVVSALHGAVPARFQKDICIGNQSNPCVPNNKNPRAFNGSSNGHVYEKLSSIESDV
Sequence of YFP-hGluN1-1a/hGluN2B (Q13224 27-1484, other chains not shown): as above
T4 sequence (Q12879 23-1464, other chains not shown): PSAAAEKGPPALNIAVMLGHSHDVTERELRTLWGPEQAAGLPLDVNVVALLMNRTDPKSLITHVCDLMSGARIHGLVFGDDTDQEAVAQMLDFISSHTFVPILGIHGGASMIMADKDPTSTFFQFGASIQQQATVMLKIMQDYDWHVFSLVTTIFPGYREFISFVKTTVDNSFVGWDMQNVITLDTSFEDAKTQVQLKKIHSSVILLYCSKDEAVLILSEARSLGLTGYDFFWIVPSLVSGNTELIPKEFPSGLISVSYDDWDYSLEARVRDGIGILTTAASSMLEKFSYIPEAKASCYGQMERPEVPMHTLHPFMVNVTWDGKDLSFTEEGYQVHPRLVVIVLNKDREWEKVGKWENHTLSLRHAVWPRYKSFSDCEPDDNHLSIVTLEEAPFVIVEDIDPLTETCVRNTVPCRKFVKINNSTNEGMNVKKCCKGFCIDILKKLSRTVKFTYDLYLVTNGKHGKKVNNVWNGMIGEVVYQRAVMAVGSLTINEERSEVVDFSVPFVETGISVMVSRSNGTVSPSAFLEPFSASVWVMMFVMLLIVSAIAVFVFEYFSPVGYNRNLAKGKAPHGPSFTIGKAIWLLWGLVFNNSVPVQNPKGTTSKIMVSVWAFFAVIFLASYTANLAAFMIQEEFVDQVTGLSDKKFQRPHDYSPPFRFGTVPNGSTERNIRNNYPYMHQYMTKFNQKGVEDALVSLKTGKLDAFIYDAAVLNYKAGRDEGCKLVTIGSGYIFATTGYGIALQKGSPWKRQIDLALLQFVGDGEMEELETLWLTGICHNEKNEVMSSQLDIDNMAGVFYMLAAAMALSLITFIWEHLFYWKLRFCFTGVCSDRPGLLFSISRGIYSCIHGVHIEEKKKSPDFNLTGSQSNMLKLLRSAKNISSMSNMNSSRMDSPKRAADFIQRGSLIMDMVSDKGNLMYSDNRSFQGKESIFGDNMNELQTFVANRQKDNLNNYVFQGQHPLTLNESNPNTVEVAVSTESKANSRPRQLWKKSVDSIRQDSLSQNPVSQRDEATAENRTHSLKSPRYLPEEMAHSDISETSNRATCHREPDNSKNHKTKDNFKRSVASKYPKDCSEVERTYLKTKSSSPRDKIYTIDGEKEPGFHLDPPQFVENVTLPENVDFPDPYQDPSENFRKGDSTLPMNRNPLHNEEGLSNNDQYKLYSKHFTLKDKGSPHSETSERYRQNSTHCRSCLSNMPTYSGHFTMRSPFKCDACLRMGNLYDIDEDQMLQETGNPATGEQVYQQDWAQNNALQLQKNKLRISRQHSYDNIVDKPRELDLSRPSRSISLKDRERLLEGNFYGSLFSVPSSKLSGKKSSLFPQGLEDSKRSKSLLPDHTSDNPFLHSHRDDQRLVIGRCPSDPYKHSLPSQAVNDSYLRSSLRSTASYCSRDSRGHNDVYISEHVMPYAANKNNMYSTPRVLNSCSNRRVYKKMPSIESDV

O[C@@H](CS)[C@@H](O)CS (racemic) [DTT, dithiothreitol]
effect on peak current amplitudes (redox sensitivity) (hGluN1-4a/hGluN2A): neither condition (DTT or DTNB) altered the peak current amplitudes
effect on peak current amplitudes (redox sensitivity) (hGluN1-4a-C744Y/hGluN2B): did not affect
effect on peak current amplitudes (redox sensitivity) (hGluN1-4a/hGluN2B): reduced the peak current amplitudes
effect on peak current amplitudes (redox sensitivity) (hGluN1-4a-C744Y/hGluN2A): neither condition (DTT or DTNB) altered the peak current amplitudes

O=C(O)c1cc(SSc2ccc([N+](=O)[O-])c(C(=O)O)c2)ccc1[N+](=O)[O-] [DTNB, 5,5′-dithiobis-(2-nitrobenzoic acid)]
effect on peak current amplitudes (redox sensitivity) (hGluN1-4a/hGluN2A): neither condition (DTT or DTNB) altered the peak current amplitudes
effect on peak current amplitudes (redox sensitivity) (hGluN1-4a-C744Y/hGluN2A): neither condition (DTT or DTNB) altered the peak current amplitudes

N[C@@H](CCC(=O)O)C(=O)O [L-glutamate]
EC50 [1]: 1100 nM
EC50 (GluN1-C455S/GluN2B): 3000 nM
L-glutamate h (Hill coefficient) ([2]; YFP-hGluN1-1a-C744Y/hGluN2B, −60 mV): 0.89 ± 0.05
L-glutamate h (Hill coefficient) (YFP-hGluN1-1a/hGluN2B; YFP-hGluN1-1a/hGluN2B, −60 mV): 1.06 ± 0.06
L-glutamate h (Hill coefficient) (YFP-hGluN1-1a/hGluN2A; YFP-hGluN1-1a/hGluN2A, −60 mV): 1.36 ± 0.10
L-glutamate h (Hill coefficient) ([3]; YFP-hGluN1-1a-C744Y/hGluN2A, −60 mV): 1.33 ± 0.09
EC50 (GluN1-C436S/GluN2B): 3000 nM
EC50 (GluN1-C454S/GluN2B): 1700 nM

C[C@]12N[C@H](Cc3ccccc31)c1ccccc12 [MK-801, Dizocilpine]
τon-MK-801 [4]: 2,612.49 ± 167.91 ms
τon-MK-801 [5]: 2,040.87 ± 282.26 ms
τon-MK-801 [6]: 1,038.07 ± 140.54 ms
τon-MK-801 [7]: 345.28 ± 25.68 ms
τon-MK-801 (GluN1-4a/GluN2A): 981.54 ± 19.11 ms
τon-MK-801 [8]: 937.85 ± 78.10 ms
τon-MK-801 [9]: 278.04 ± 55.79 ms
τon-MK-801 [10]: 987.68 ± 105.05 ms
τon-MK-801 [11]: 1,988.70 ± 356.79 ms
τon-MK-801 (GluN1-4a/GluN2B): 2,307.47 ± 151.45 ms
τon-MK-801 [12]: 910.61 ± 85.39 ms
τon-MK-801 [2]: 846.35 ± 52.08 ms
τon-MK-801 [13]: 3,355.73 ± 243.72 ms
τon-MK-801 (YFP-hGluN1-1a/hGluN2B): 2,008.90 ± 224.76 ms
τon-MK-801 (YFP-hGluN1-1a/hGluN2A): 789.63 ± 58.54 ms
τon-MK-801 (YFP-GluN1-1a/GluN2B): 2,053.21 ± 117.07 ms
τon-MK-801 [14]: 1,109.06 ± 65.15 ms
τon-MK-801 [3]: 240.25 ± 29.53 ms
τon-MK-801 [15]: 486.89 ± 100.90 ms
τon-MK-801 [16]: 3,010.09 ± 193.67 ms
τon-MK-801 [17]: 765.01 ± 74.13 ms
τon-MK-801 [18]: 1,045.30 ± 112.94 ms
τon-MK-801 (YFP-GluN1-1a/GluN2A): 1,178.37 ± 93.82 ms
